The results in this text go back to ChEMBL document CHEMBL1146120 (J Med Chem, 2006).

A word on the IC50: it is the point on the concentration scale where inhibition reaches its midpoint. As usually defined, the Emax is the size of the effect at its maximum, as opposed to the concentration needed. The Kb is the affinity of an antagonist, worked out from how it opposes an agonist.

Calls of active or inactive are those of the source. The calls are words filed in the database; no cut-off is given here.

The species named for assay [1] is Rattus norvegicus. In words: Activity against NO-mediated vasorelaxation of KCl-induced contractile tone in Wistar rat thoracic aortic ring at 1 uM. It counts as functional.
The species entered for assay [2] is Rattus norvegicus. Description: Inhibition of NO-mediated vasorelaxation of KCl-induced contractile tone in Wistar rat thoracic aortic ring. The format is functional. The note with it: Aorta.
The species entered for assay [3] is Rattus norvegicus. Description: Activity against NO-mediated vasorelaxation of KCl-induced contractile tone in Wistar rat thoracic aortic ring. The note with it: Aorta. The format is functional.
Assay [4] addresses T1, Type-1 angiotensin II receptor (Homo sapiens) (UniProt P30556).
T1 sequence (whole entry): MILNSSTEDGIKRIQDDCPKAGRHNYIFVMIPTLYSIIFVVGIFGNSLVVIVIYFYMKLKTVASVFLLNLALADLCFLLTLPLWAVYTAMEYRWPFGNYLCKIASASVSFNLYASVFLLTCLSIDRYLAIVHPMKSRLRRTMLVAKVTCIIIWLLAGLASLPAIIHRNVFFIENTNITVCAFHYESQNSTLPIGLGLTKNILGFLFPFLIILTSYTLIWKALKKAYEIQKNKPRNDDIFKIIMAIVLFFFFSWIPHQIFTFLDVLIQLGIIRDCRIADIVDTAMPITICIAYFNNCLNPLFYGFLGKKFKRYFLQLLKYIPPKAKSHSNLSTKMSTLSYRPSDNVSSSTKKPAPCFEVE
In words: Antagonist activity against AT1 receptor after 20 min preincubation. The format is functional.

Assay [5] has as its target T1, Type-1 angiotensin II receptor (Homo sapiens). In words: Antagonist activity against AT1 receptor after 60 min preincubation. It counts as functional.
For assay [6], the system named is Rattus norvegicus. In words: Antihypertrophic activity in Wistar rat at 21.3 mg/kg, ip. On the set-up: dose 21.3 mg/kg. It counts as functional, organism-based.
For assay [7], the system named is Plasma. In words: Inhibition of ADP-mediated platelet aggregation in Wistar rat platelet-rich plasma at 100 uM. The format is functional. The arrangement: scale not given: the % may be the effect or the level left.

With `CCCCc1nc(Cl)c(C(=O)Oc2ccc(CO[N+](=O)[O-])cc2)n1Cc1ccc(-c2ccccc2-c2nn[nH]n2)cc1`, the result in assay [1] (Aorta) was Active. The compound further gave an IC50 in assay [2] of 275 nM. Also, the Emax in assay [3] was 100%. For the same compound, the Kb result in assay [4] is “inactive”.

For the compound `CCCCc1nc(Cl)c(COC(=O)c2cccc(C(C)O[N+](=O)[O-])c2)n1Cc1ccc(-c2ccccc2-c2nn[nH]n2)cc1` (stereo not given), the Activity in assay [1] is recorded as less than 25%. For the same compound, the Kb in assay [5] turned out to be 12 nM. In addition, in assay [3], the Emax was 47%. Moreover, the Kb result in assay [4] was “inactive”.

As to `C[C@H](CS)C(=O)N1CCC[C@H]1C(=O)O`, in assay [6], the result was Active.

`CCCCc1nc(Cl)c(COC(=O)c2c(C)ccc(CO[N+](=O)[O-])c2C)n1Cc1ccc(-c2ccccc2-c2nn[nH]n2)cc1`: the Activity in assay [1] is recorded as less than 25%. Also, half-maximal inhibition in assay [2] (IC50) was put at 32400 nM. This compound gave an Emax in assay [3] of 100%. In addition, the Kb result in assay [4] was “inactive”.

For the compound `CCCCc1nc(Cl)c(COC(=O)c2cccc(CO[N+](=O)[O-])c2)n1Cc1ccc(-c2ccccc2-c2nn[nH]n2)cc1`, the result in assay [1] (Aorta) and in assay [6] was Active. The same compound showed a half-maximal inhibitory concentration (IC50) in assay [2] of 275 nM. The antagonist equilibrium constant (Kb) in assay [5] turned out to be 10 nM. Besides, the Activity in assay [7] is reported as 41%. This compound also came in with an Emax in assay [3] of 100%.

The compound `CCCCc1nc(Cl)c(COC(=O)c2cccc(CO[N+](=O)[O-])n2)n1Cc1ccc(-c2ccccc2-c2nn[nH]n2)cc1` had an Activity in assay [1] of less than 25%. Further, the IC50 in assay [2] is 12300 nM. The compound further gave an Emax in assay [3] of 100%. Also, the Kb in assay [4] turned out to be 8 nM.

In assay [1], `CCCCc1nc(Cl)c(CO[N+](=O)[O-])n1Cc1ccc(-c2ccccc2-c2nn[nH]n2)cc1` [LOSARTAN NITROOXY ESTER] displayed an Activity of less than 25%. In addition, in assay [2], the IC50 was 15100 nM. In addition, in assay [5], the Kb was determined as 3 nM. In assay [3], the Emax was found to be 100%. Moreover, the Kb result in assay [4] was “inactive”.

The compound `CCCCc1nc(Cl)c(C(=O)Oc2cccc(CO[N+](=O)[O-])c2)n1Cc1ccc(-c2ccccc2-c2nn[nH]n2)cc1` returned an Activity in assay [1] of less than 25%. In addition, the IC50 in assay [2] was 6030 nM. The Emax in assay [3] stood at 100%.

`CCCCc1nc(Cl)c(COC(=O)CCCCO[N+](=O)[O-])n1Cc1ccc(-c2ccccc2-c2nn[nH]n2)cc1` showed an IC50 in assay [2] of 851 nM. In assay [3], the Emax stood at 100%. Moreover, in assay [4], the antagonist equilibrium constant (Kb) came to 16 nM.

As for `CCCCc1nc(Cl)c(CO)n1Cc1ccc(-c2ccccc2-c2nnn[nH]2)cc1` [LOSARTAN], the outcome in assay [6] was Active. The compound also had an Activity in assay [7] of 50%.

On to `CCCCc1nc(Cl)c(COC(=O)c2ccc(CO[N+](=O)[O-])cc2)n1Cc1ccc(-c2ccccc2-c2nn[nH]n2)cc1`, for which, in assay [1] (Aorta), the outcome was Active. The IC50 in assay [2] is 66.1 nM. Also, the maximum response (Emax) in assay [3] worked out at 100%. The compound also had a Kb in assay [4] of 19 nM.

As to `CCCCc1nc(Cl)c(COC(=O)c2ccc(C(C)O[N+](=O)[O-])cc2)n1Cc1ccc(-c2ccccc2-c2nn[nH]n2)cc1` (stereo not given), the Activity in assay [1] is on record as less than 25%. For the same compound, the IC50 in assay [2] was 7760 nM. The Kb in assay [5] stood at 8 nM. The same compound returned a maximal response (Emax) in assay [3] of 100%. The Kb result in assay [4] was “inactive”.
